Here are results for 7 compounds from patent publication US20050154061A1, “Acetic acid derivatives” (Bayer Aktiengesellschaft, priority 2001, published 2005).

Structures are written as SMILES. pEC50: −log10 of the molar value.

This assay has as its target T1, GAL4-PPARδ chimera (Homo sapiens, UniProt Q03181).
T1 construct: expressed in transfected cells
The assay is described as follows: Cellular transactivation assay (luciferase reporter). In kind it is cell-based. The following applies: CHO cells stably expressing GAL4-PPARδ chimera and luciferase reporter; 24 hours stimulation. The source says:
Cellular Transactivation Assay:
A cellular assay is used to identify activators of the peroxisome proliferator-activated receptor delta (PPAR-delta).
Since mammalian cells contain different endogenous nuclear receptors which may complicate an unambiguous interpretation of the results, an established chimera system is used in which the ligand binding domain of the human PPARδ receptor is fused to the DNA binding domain of the yeast transcription factor GAL4. The resulting GAL4-PPARδ chimera is co-transfected and stably expressed in CHO cells having a reporter construct.
The reporter construct, which contains five copies of the GAL4 binding site upstream of a thymidine kinase promoter, expresses firefly luciferase (Photinus pyralis) following activation and binding of GAL4-PPARδ.
Transactivation Assay (Luciferase Reporter):
CHO (chinese hamster ovary) cells are sown in CHO-A-SFM medium (GIBCO), supplemented by 2.5% foetal calf serum, 1% penicillin/streptomycin (GIBCO), at a cell density of 2×10^3 cells per well in a 384 well plate (Greiner). The cells are cultivated at 37° C. for 48 h and then stimulated. To this end, the substances to be tested are taken up in the abovementioned medium and added to the cells. After a stimulation period of 24 hours, the luciferase activity is measured using a video camera. The relative light units measured give, as a function of the substance concentration, a sigmoidal stimulation curve.

T1 sequence (Q03181 with tags, fused parts or gaps limits assumed): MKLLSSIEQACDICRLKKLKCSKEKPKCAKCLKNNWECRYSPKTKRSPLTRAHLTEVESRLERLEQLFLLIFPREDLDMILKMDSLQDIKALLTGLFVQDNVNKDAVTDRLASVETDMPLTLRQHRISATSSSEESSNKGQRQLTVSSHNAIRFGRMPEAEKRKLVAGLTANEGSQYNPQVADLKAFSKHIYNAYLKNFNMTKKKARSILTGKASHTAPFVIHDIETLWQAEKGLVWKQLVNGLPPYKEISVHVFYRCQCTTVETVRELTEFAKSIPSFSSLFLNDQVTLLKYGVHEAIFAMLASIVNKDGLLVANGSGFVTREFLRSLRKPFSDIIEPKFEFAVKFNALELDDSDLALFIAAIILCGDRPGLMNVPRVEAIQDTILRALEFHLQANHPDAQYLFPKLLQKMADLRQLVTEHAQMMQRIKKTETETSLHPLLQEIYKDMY

For `Cc1cc(CN(CC(=O)Nc2ccc(Cl)cc2Cl)C2C(C)CCC2C)ccc1OC(C)(C)C(=O)O` (stereo not shown) [Example 3, 2-[4-[[[2-[(2,4-Dichlorophenyl)amino]-2-oxoethyl]-(2,5-dimethylcyclopentyl)amino]methyl]-2-methylphenoxy]-2-methylpropanoic Acid], the pEC50 was 7.00 to 9.00. `Cc1ccc(NC(=O)CN(Cc2ccc(OC(C)C(=O)O)c(C)c2)C2CCCCC2)c(C)c1` (stereo not shown) [Example 6, 2-[4-[[[2-[(2,4-Dimethylphenyl)amino]-2-oxoethyl]cyclohexylamino]methyl]-2-methylphenoxy]propanoic Acid] had a negative logarithm of the EC50 (pEC50) of 7.00 to 9.00. Take `Cc1cc(CN(CCNc2ccc(Cl)cc2Cl)C2CCCCC2)ccc1OC(C)(C)C(=O)O` [Example 4, 2-{4-[(Cyclohexyl{2-[(2,4-dichlorophenyl)amino]ethyl}amino)methyl]-2-methylphenoxy}-2-methylpropanoic Acid]: the pEC50 is 7.00 to 9.00. `Cc1cc(CN(CC(=O)Nc2ccc(Cl)cc2Cl)C2CCCCC2)ccc1OC(C)(C)C(=O)O` [Example 1, 2-[4-[[[2-[(2,4-Dichlorophenyl)amino]-2-oxoethyl]cyclohexylamino]methyl]-2-methylphenoxy]-2-methylpropanoic Acid] had a pEC50 of 7.00 to 9.00. Take `Cc1cc(CN(CC(=O)Nc2ccc(Cl)cc2Cl)C2CCCCC2)ccc1OCC(=O)O` [Example 2, 2-[4-[[[2-[(2,4-Dichlorophenyl)amino]-2-oxoethyl]cyclohexylamino]methyl]-2-methylphenoxy]acetic Acid]: the pEC50 was 7.00 to 9.00.

With `Cc1cc(CN(CC(=O)Nc2ccc(Cl)cc2Cl)C2CCCC2)ccc1OC(C)C(=O)O` (stereo not shown) [Example 8], the pEC50 is 7.00 to 9.00. As to `CC(C)(Oc1ccc(CN(CC(=O)Nc2ccc(Cl)cc2Cl)C2CCCC2)cc1)C(=O)O` [Example 9], the pEC50 was 7.00 to 9.00.
